This passage reports EC50 results from BindingDB's records for patent US9675571 (Bristol-Myers Squibb, 2017).

For this experiment, the target named is Indoleamine 2,3-dioxygenase 1 (Homo sapiens, UniProt P14902). As to the kind of experiment: IDO Kynurenine Assay. The settings on record: 25 °C. As for the experimental part:
Human IDO1/HEK293 cells were seeded at 10,000 cells per 50 uL per well with RPMI/phenol red free media contains 10% FBS in a 384-well black wall clear bottom tissue culture plate (Matrix Technologies LLC) 125 nL of certain concentration of compound was then added to each well using ECHO liquid handling systems. The cells were incubated for 20 hours in 37° C. incubator with 5% CO2. The compound treatments were stopped by adding Trichloroacetic Acid (Sigma-Aldrich) to a final concentration at 0.2%. The cell plate was further incubated at 50° C. for 30 minute. The equal volume supernatant (20 uL) and 0.2% (w/v) Ehrlich reagent (4-dimethylaminobenzaldehyde, Sigma-Aldrich) in glacial acetic acid were mixed in a new clear bottom 384-well plate. This plate was then incubated at room temperature for 30 minute. The absorbance at 490 nm was measured on Envision plate reader.

Chain of Indoleamine 2,3-dioxygenase 1 (P14902 whole entry): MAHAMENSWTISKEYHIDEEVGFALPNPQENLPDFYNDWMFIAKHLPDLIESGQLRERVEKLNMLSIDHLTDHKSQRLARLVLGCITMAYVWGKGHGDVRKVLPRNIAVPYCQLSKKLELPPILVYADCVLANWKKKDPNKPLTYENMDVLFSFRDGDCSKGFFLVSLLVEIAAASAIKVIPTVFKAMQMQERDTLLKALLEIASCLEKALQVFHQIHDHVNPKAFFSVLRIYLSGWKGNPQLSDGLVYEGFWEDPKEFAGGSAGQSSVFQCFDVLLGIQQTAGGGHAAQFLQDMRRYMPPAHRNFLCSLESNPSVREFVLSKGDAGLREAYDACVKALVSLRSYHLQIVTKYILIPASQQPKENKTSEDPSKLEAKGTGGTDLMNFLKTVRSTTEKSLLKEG

Consider `Cc1cc(NC(=O)Nc2cc([C@H]3C[C@H]3C(=O)O)ccc2N(CC(C)C)C2CCCCC2)on1` [US9675571, 129], for which the response was half-maximal at 0.5 nM (EC50).
